From patent US20260183295A1, “METHODS AND COMPOSITIONS FOR TREATING CANCER” (Onconova Therapeutics, Inc., priority 2022, published 2026)

Columns and labels:
Format in all cases: cell-based
[1] = tested on: Caspase 3/7; experiment: Caspase 3/7 Glo assay with or without bafilomycin A1, MDA-MB-231 cells, 2 days; conditions: 5 μM
Source text: FIGS. 34 and 35 show Caspase 3/7 activity as measured by the Caspase 3/7 Glo assay. […] The effect was enhanced by co-treatment with bafilomycin A1 cotreatment.

[2] = tested on: HCC-1937; experiment: Cell viability after 72 hours treatment; conditions: HCC-1937 (TNBC)
Protocol: (§1) The effects on the different treatment conditions on BUB 1 levels and PARP cleavage were also assessed. For both MNA-MB-231 cells, Compound 1 alone or with HCQ or SBI decreased BUB1 levels and cleaved PARP with […] decreases in cell viability observed for all treatments except Compound 1+SBI in MMA-MB-231 cells. The effects of Compound 1 with or without autophagy inhibitors was less pronounced in HCC-1937 cells.

[3] = tested on: MDA-MB-468; experiment: Cell viability after 72 hours treatment; conditions: MDA-MB-468 (TNBC)
Protocol: as §1

[4] = tested on: Caspase 3/7; experiment: Caspase 3/7 Glo assay, MDA-MB-231 cells, 24 hours
Protocol: To determine how Compound 1 induces cell death, Caspase 3/7 activity was measured using the Caspase 3/7 Glo assay.
The effect of zVAD-FMK treatment on Caspase 3/7 activity was assessed.

[5] = tested on: Hs578T spheroids; experiment: CellTiter Glo 3D spheroid viability; conditions: 48 hours; Compound 1, Comparator 1, Comparator 2 5 μM; Comparator 4 10 μM
Protocol: Viability of the spheroids was assessed using CellTiter Glo 3D.

[6] = tested on: MDA-MB-231 cells; experiment: MTT assay, 24 hours; conditions: zVAD-FMK 20 μM (FIG. 25)
[7] = tested on: MDA-MB-231 cells; experiment: Annexin V/PI staining followed by FACS, 24 hours; conditions: for cell death (Annexin V/PI): Compound 1, Comparator 1, 2 5 μM, Comparator 4 10 μM; for effect of zVAD-FMK on cell death, Annexin V/PI staining: zVAD-FMK 20 μM (FIG. 24)
Protocol: To determine the effect of the different treatment conditions on cell death, Annexin V/PI staining was performed.

[8] = tested on: T-47D, HCC-1937, HS-578T, BT-474, MDA-MB-468, and MD-MB-453 cell lines; experiment: MTT cell viability of breast cancer cell line panel versus comparators, 48 hrs (FIG. 17); conditions: Comparator 4 10 μM, Comparator 1 and 2 5 μM, Compound 1 2.5, 5.0, 10 μM
[9] = Compound 1, Comparator 1, 2 5 μM, Comparator 4 10 μM (FIG. 22)
[10] = without zVAD-FMK, relative to DMSO (FIG. 26)

| SMILES | Caspase 3/7 activity, compound alone [1] | 72 h-cell viability decrease [2] | 72 h-cell viability decrease [3] | Caspase 3/7 activity [4, 9] | decrease in organoid viability compared to DMSO [5] | Caspase 3/7 activity [4, 10] | effect of zVAD-FMK on cell death, MTT assay [6] | cell death (Annexin V/PI) [7] | effect of zVAD-FMK on cell death, Annexin V/PI staining [7] | effect of zVAD-FMK on induced Caspase 3/7 activity ([4]; zVAD-FMK 20 μM (FIG. 26)) | cell death (MTT), comparison of treatments [8] |
| --- | --- | --- | --- | --- | --- | --- | --- | --- | --- | --- | --- |
| CC(=O)c1c(C)c2cnc(Nc3ccc(N4CCNCC4)cn3)nc2n(C2CCCC2)c1=O [Comparator 1, palbociclib] | no effect | 15% | 10% | no effect | no effect | – | – | – | – | – | – |
| CN(C)C(=O)c1cc2cnc(Nc3ccc(N4CCNCC4)cn3)nc2n1C1CCCC1 [Comparator 2, ribociclib] | – | – | – | no effect | no effect | not increased | similarly unaffected | neither Comparator 1 nor Comparator 2 treatment induced cell death | similarly unaffected | – | – |
| CCN1CCN(Cc2ccc(Nc3ncc(F)c(-c4cc(F)c5nc(C)n(C(C)C)c5c4)n3)nc2)CC1 [Comparator 3, abemaciclib] | – | 10% | 50% | – | – | – | – | – | – | – | – |
| CC(C)C[C@H](NC(=O)[C@H](Cc1ccccc1)NC(=O)c1cnccn1)B(O)O [Comparator 4, bortezomib] | – | – | – | greatest increase | significant cell death | large increase | partially blocked | ~55% | partially blocked | completely inhibited | induced cell death to the greatest extent |
